This is an account of results in ChEMBL document CHEMBL2062478, “Targeted kinase selectivity from kinase profiling data” (ACS Med Chem Lett, 2012).

By Ki is commonly meant a dissociation constant, usually derived from enzyme kinetics or from competition with a known ligand. Read a low Ki as tighter binding.

Molecules are shown by their SMILES.

The target in experiment [1] is Platelet-derived growth factor receptor alpha (Homo sapiens, UniProt P16234). Kind of experiment: Inhibition of PDGFRA.
Experiment [2] concerns the target Cyclin-dependent kinase 1 (Homo sapiens, UniProt P06493). Kind of experiment: Inhibition of CDC2.
Experiment [3] concerns the target Cell division cycle 7-related protein kinase (Homo sapiens, UniProt O00311). Kind of experiment: Inhibition of CDC7.
The target of experiment [4] is Tyrosine-protein kinase Lck (Homo sapiens, UniProt P06239). Kind of experiment: Inhibition of LCK.
Experiment [5] addresses Epidermal growth factor receptor (Homo sapiens, UniProt P00533). Kind of experiment: Inhibition of EGFR.

Cyclin-dependent kinase 1, sequence (P06493 whole entry): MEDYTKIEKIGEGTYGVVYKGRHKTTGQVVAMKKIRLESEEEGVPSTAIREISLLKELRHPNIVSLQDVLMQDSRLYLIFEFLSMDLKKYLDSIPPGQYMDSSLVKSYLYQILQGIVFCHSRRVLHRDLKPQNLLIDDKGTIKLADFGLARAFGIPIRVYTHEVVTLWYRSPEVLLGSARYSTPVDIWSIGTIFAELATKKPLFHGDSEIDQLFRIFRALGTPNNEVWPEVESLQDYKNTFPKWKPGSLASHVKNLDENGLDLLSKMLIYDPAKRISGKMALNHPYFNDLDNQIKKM
Platelet-derived growth factor receptor alpha, sequence (P16234 whole entry): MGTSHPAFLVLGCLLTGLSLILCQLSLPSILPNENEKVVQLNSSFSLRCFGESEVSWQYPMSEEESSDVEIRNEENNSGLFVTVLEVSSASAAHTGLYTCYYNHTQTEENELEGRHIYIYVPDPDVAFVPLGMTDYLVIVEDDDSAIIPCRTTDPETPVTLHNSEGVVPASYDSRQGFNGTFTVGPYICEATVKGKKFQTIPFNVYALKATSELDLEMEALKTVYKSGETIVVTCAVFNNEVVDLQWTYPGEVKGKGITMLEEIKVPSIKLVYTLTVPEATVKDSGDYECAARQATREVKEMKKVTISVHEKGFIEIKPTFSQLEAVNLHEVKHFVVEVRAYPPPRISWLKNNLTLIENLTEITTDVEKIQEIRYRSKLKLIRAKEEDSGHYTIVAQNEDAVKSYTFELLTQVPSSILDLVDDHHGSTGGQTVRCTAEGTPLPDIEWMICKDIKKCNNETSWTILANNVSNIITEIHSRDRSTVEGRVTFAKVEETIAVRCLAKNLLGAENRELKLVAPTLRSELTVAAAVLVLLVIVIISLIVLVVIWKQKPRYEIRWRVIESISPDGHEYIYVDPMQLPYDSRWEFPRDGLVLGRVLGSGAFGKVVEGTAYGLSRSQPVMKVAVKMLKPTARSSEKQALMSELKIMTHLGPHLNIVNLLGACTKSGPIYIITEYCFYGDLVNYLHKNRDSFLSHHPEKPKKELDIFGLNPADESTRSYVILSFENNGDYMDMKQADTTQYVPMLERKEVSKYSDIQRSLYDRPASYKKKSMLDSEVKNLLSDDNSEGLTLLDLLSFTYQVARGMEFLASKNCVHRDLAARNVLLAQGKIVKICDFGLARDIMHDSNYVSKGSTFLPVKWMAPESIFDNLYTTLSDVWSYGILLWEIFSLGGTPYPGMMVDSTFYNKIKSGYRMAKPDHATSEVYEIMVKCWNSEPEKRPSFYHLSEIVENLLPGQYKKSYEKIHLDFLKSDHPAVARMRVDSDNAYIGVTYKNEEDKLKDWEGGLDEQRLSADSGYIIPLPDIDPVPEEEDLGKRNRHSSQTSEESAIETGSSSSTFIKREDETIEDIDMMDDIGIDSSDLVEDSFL
Cell division cycle 7-related protein kinase, sequence (O00311 whole entry): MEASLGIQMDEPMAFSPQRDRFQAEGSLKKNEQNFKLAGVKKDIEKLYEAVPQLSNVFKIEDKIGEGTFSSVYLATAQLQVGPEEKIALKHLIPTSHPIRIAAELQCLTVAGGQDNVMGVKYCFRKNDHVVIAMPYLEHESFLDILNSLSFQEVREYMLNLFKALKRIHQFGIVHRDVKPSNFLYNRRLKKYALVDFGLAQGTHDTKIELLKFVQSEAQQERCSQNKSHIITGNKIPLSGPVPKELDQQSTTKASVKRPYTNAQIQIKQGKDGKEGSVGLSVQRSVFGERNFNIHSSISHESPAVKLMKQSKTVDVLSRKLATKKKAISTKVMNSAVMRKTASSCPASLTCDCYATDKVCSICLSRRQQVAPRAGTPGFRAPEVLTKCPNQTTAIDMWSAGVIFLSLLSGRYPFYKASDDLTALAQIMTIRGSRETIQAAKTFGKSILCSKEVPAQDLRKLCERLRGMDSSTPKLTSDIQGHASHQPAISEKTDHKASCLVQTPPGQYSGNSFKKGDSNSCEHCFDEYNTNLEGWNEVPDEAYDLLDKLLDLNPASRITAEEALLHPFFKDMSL
Epidermal growth factor receptor, sequence (P00533 whole entry): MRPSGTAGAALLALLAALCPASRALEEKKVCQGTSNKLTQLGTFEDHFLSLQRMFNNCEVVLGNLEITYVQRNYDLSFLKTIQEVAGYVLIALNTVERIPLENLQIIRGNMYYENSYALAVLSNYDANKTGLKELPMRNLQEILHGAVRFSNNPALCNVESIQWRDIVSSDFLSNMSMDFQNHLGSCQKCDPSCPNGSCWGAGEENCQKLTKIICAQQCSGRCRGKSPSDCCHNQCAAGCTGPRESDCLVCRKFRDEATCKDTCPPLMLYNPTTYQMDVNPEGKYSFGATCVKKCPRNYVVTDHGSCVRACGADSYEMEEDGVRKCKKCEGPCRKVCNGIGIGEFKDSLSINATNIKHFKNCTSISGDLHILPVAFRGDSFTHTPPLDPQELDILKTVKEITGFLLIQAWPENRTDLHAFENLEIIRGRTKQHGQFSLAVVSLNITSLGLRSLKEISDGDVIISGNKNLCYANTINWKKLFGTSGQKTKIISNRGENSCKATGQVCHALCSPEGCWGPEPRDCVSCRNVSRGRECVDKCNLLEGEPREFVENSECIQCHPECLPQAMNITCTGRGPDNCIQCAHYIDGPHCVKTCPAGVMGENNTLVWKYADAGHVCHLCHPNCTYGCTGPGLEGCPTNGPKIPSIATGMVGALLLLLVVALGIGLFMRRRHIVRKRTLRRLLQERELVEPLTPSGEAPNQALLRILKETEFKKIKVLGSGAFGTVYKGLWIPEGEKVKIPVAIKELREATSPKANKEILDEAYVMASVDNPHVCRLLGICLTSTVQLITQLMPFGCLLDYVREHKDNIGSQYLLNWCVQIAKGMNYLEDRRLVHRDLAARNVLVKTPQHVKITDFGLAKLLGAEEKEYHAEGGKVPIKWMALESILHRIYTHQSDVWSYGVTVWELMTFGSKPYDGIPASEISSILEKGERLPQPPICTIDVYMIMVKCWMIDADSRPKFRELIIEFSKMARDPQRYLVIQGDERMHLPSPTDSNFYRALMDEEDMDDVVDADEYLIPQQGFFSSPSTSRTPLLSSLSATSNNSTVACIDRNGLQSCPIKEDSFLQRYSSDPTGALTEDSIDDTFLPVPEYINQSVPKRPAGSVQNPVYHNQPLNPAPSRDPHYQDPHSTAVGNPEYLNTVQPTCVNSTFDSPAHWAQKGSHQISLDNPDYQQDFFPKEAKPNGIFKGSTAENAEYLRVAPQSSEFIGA
Tyrosine-protein kinase Lck, sequence (P06239 whole entry): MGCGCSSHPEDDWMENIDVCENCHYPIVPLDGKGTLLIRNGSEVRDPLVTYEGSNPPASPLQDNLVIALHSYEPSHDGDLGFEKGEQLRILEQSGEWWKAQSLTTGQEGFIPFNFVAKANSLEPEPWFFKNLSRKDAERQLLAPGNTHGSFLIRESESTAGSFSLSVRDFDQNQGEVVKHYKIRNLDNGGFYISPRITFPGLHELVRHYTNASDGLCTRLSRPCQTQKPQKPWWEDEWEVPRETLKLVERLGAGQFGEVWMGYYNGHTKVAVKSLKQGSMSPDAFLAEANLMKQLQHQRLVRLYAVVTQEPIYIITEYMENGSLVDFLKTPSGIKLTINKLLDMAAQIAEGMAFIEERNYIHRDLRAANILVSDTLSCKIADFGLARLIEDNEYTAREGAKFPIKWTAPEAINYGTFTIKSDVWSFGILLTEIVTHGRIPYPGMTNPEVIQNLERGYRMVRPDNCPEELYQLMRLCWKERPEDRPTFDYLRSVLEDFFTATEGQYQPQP

Take `CC(C)(C(N)=O)n1cc(-c2cnc(N)c3c(-c4ccc(NC(=O)Nc5cccc(F)c5)cc4)csc23)cn1`: in experiment [1], the inhibition constant (Ki) is > 10000 nM.
As to `Cc1cccc(NC(=O)Nc2ccc(-c3csc4c(C#CC(C)(C)N)cnc(N)c34)cc2)c1`, in experiment [1], the inhibition constant (Ki) is > 10000 nM.
`O=C(Nc1n[nH]c2ccc(-c3cn(Cc4ccccc4)nn3)cc12)c1cccc(Cl)c1`: the Ki in experiment [2] is > 10000 nM.
Consider `C[C@@H](O)Cn1cc(-c2cnc(N)c3c(-c4ccc(NC(=O)Nc5cccc(F)c5)cc4)csc23)cn1`, for which, in experiment [1], the inhibitory constant (Ki) is > 10000 nM.
For the compound `O[C@H]1CC[C@H](Nc2nc(Cl)cc(-c3c[nH]c4ncccc34)n2)CC1`, the inhibition constant (Ki) in experiment [3] was 0.158 nM; in experiment [2] it was 39.8 nM.
On the same counts, the results for `CN(C)[C@H]1CC[C@H](Nc2nc(Cl)cc(-c3c[nH]c4ncccc34)n2)CC1` are 0.316 nM and > 10000 nM.
As to `O=C(Cc1ccccc1)Nc1cc(-c2nc3sccn3c2-c2ccnc(Nc3ccc(N4CCOCC4)cc3)n2)ccc1Cl`, the inhibition constant (Ki) in experiment [4] was 79.4 nM; in experiment [5] it was > 10000 nM.
